Experimental data published in the NIST ThermoML archive (doi:10.1016/j.jct.2004.07.006).
± gives the expanded uncertainty stated by the source. Values belong to the compound of their own block, whether it stands above or below them.

Test: mn = molality of the nth substance listed, in mol/kg
Conditions: 298.15 K, 101.33 kPa, Liquid

viscosity (m1 = 0.4993): 0.9561 ± 0.031 mPa·s
viscosity (m1 = 0.7501): 0.9914 ± 0.032 mPa·s
viscosity (m1 = 1): 1.028 ± 0.033 mPa·s
viscosity (m1 = 1.499): 1.106 ± 0.035 mPa·s
viscosity (m1 = 1.5): 1.106 ± 0.035 mPa·s
viscosity (m1 = 2): 1.189 ± 0.037 mPa·s
Compound: NCC(=O)O [2-aminoacetic acid] + O

viscosity (m1 = 0.1002): 0.9179 ± 0.03 mPa·s
viscosity (m1 = 0.4992): 1.017 ± 0.032 mPa·s
viscosity (m1 = 0.7503): 1.08 ± 0.034 mPa·s
viscosity (m1 = 0.9992): 1.152 ± 0.036 mPa·s
Compound: C[C@H](N)C(=O)O [(S)-2-aminopropanoic acid] + O

viscosity (m1 = 0.0995): 0.9265 ± 0.03 mPa·s
viscosity (m1 = 0.0998): 0.9265 ± 0.03 mPa·s
viscosity (m1 = 0.5004): 1.062 ± 0.034 mPa·s
viscosity (m1 = 0.7502): 1.145 ± 0.036 mPa·s
Compound: NCC(=O)NCC(=O)O [glycylglycine] + O
